Values quoted from earlier work as cited in patent US8835508B2, “Stable aqueous solution containing sodium pyruvate, and the preparation and use thereof” (priority 2006, dated 2014).
Read-outs that look alike come from different tables or passages of the source.

Conditions: for content of dimer: 3.0 M (3,000 mM) pure NaPyr in water, room temperature

content of dimer (pH 7.3, after 24 hours): 9.1% | content of dimer (pH 7.3, after 48 hours): 18.4% | stability of aqueous solution containing NaPyr (22° C., pH >6.0, HPLC and NMR): unstable
SMILES: CC(=O)C(=O)[O-].[Na+] [NaPyr, sodium pyruvate]
